Data taken from the supplement of paper PMC11208160.

Assay: recombinant UMI read abundance after kanamycin selection (control-corrected) (log10(CPM+1)); higher = more efficient recombination; extreme values may be limits of the assay; sequences stand for … in AGTGCAGAGAAAATCGGCCAGTTTTCTCTGCCTGCAGTCCGCATGCCGTGGGACCCCTTGGGTTCTAACCTGTTGCCTAGATTTATGCAGCGGACTGCCTTTCTCCCAAAGTGATAAACCGG…AGGTTGGTTTCACT; site = the 11-nt donor
In short: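 For the IS621 bridge recombinase, a pooled Escherichia coli screen tested donor and donor-binding-loop pairs. Cells received the pair library together with a target plasmid encoding a fixed target and T7-inducible recombinase, then went onto IPTG (0.07 mM) plus kanamycin or unselected plates in duplicate. After PCR across the donor–target junction and sequencing, recombinant UMI counts were normalized to CPM, averaged, and scaled by control-derived factors. Each value is given as log10(CPM+1).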
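Further: IS621 bridge recombinase in Escherichia coli cells against a fixed T5 target plasmid.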

Point of comparison: “AGTGGCCCATGGACCGGTTTTCCCGGTAATCCGTATTTGCG (site AGTGGCCCTCG)”, “recombinant UMI read abundance (log10)” value 0.0207. Against it:
- AGTAATTCATGGACCGGTTTTCCCGGTAATCCGTATTTGAC (site AGTAATTCTGT) — within 0.2 log units, 0.17
- AGTACACCATGGACCGGTTTTCCCGGTAATCCGTATTTGAG (site AGTACACCTCT) — within 0.2 log units, 0.0245
- AGTAGCCCATGGACCGGTTTTCCCGGTAATCCGTATTTGGA (site AGTAGCCCTTC) — within 0.2 log units, 0.01
- AGTCCATCATGGACCGGTTTTCCCGGTAATCCGTATTTGGG (site AGTCCATCTCC) — within 0.2 log units, 0.00252
- AGTCCCACATGGACCGGTTTTCCCGGTAATCCGTATTTGGA (site AGTCCCACTTC) — higher, 0.296
- AGTCCTTCATGGACCGGTTTTCCCGGTAATCCGTATTTGGG (site AGTCCTTCTCC) — within 0.2 log units, 0.0141
- AGTCTAGCATGGACCGGTTTTCCCGGTAATCCGTATTTGTT (site AGACTAGCTAA) — within 0.2 log units, 0.0182
- AGTCTAGCATGGACCGGTTTTCCCGGTAATCCGTATTTGTT (site AGCCTAGCTAA) — within 0.2 log units, 0.0159
- AGTCTAGCATGGACCGGTTTTCCCGGTAATCCGTATTTGTT (site AGGCTAGCTAA) — within 0.2 log units, 0.0213
- AGTCTAGCATGGACCGGTTTTCCCGGTAATCCGTATTTGTT (site AGTCTAGCTAA) — within 0.2 log units, 0.0147
- AGTCTGACATGGACCGGTTTTCCCGGTAATCCGTATTTGGA (site AGTCTGACTTC) — higher, 0.729
- AGTCTTTCATGGACCGGTTTTCCCGGTAATCCGTATTTGAC (site AGACTTTCTGT) — within 0.2 log units, 0
- AGTCTTTCATGGACCGGTTTTCCCGGTAATCCGTATTTGAC (site AGCCTTTCTGT) — higher, 0.743
- AGTCTTTCATGGACCGGTTTTCCCGGTAATCCGTATTTGAC (site AGGCTTTCTGT) — within 0.2 log units, 0
- AGTCTTTCATGGACCGGTTTTCCCGGTAATCCGTATTTGAC (site AGTCTTTCTGT) — within 0.2 log units, 0
- AGTGACTCATGGACCGGTTTTCCCGGTAATCCGTATTTGCG (site AGTGACTCTCG) — higher, 2.88
- AGTGAGACATGGACCGGTTTTCCCGGTAATCCGTATTTGGG (site AGTGAGACTCC) — within 0.2 log units, 0.00984
- AGTGATCCATGGACCGGTTTTCCCGGTAATCCGTATTTGGT (site AGTGATCCTAC) — within 0.2 log units, 0.0964
- AGTGCGACATGGACCGGTTTTCCCGGTAATCCGTATTTGCA (site AGTGCGACTTG) — higher, 1.38
- AGTGGAACATGGACCGGTTTTCCCGGTAATCCGTATTTGTC (site AGTGGAACTGA) — higher, 2.3
- AGTGGCGCATGGACCGGTTTTCCCGGTAATCCGTATTTGTC (site AGTGGCGCTGA) — higher, 2.86
- AGTTACGCATGGACCGGTTTTCCCGGTAATCCGTATTTGAT (site AGTTACGCTAT) — higher, 1.72
- AGTTCCCCATGGACCGGTTTTCCCGGTAATCCGTATTTGTA (site AGTTCCCCTTA) — within 0.2 log units, 0.124
- AGTTCCCCATGGACCGGTTTTCCCGGTAATCCGTATTTGTA (site CGTTCCCCTTA) — within 0.2 log units, 0.025
- AGTTCCCCATGGACCGGTTTTCCCGGTAATCCGTATTTGTA (site GGTTCCCCTTA) — within 0.2 log units, 0.013
- AGTTCCCCATGGACCGGTTTTCCCGGTAATCCGTATTTGTA (site TGTTCCCCTTA) — within 0.2 log units, 0.0167
- ATAAGAACATGGACCGGTTTTCCCGGTAATCCGTATTTGGG (site ATAAGAACTCC) — higher, 0.884
- ATAAGATCATGGACCGGTTTTCCCGGTAATCCGTATTTGAA (site ATAAGATCTTT) — higher, 2.8
- ATAAGGACATGGACCGGTTTTCCCGGTAATCCGTATTTGAC (site ATAAGGACTGT) — higher, 2.34
- ATAAGGACATGGACCGGTTTTCCCGGTAATCCGTATTTGAC (site ATAAGGCCTGT) — within 0.2 log units, 0
- ATAAGGACATGGACCGGTTTTCCCGGTAATCCGTATTTGAC (site ATAAGGGCTGT) — higher, 2.31
- ATAAGGACATGGACCGGTTTTCCCGGTAATCCGTATTTGAC (site ATAAGGTCTGT) — higher, 1.93
- ATAAGGCCATGGACCGGTTTTCCCGGTAATCCGTATTTGGC (site ATAAGGCCTGA) — within 0.2 log units, 0
- ATAAGGCCATGGACCGGTTTTCCCGGTAATCCGTATTTGGC (site ATAAGGCCTGC) — higher, 2.31
- ATAAGGCCATGGACCGGTTTTCCCGGTAATCCGTATTTGGC (site ATAAGGCCTGG) — within 0.2 log units, 0
- ATAAGGCCATGGACCGGTTTTCCCGGTAATCCGTATTTGGC (site ATAAGGCCTGT) — higher, 0.68
- ATACAAGCATGGACCGGTTTTCCCGGTAATCCGTATTTGAC (site ATACAAGCTGT) — higher, 2.38
- ATACCACCATGGACCGGTTTTCCCGGTAATCCGTATTTGGT (site ATACCACCTAC) — within 0.2 log units, 0.0125
- ATACCGTCATGGACCGGTTTTCCCGGTAATCCGTATTTGGG (site ATACCGTCTCC) — within 0.2 log units, 0.0133
- ATACTATCATGGACCGGTTTTCCCGGTAATCCGTATTTGTT (site ATACTATCTAA) — higher, 2.54
- ATAGCATCATGGACCGGTTTTCCCGGTAATCCGTATTTGCA (site ACAGTATCTTG) — higher, 1.65
- ATAGCATCATGGACCGGTTTTCCCGGTAATCCGTATTTGCA (site ATAGCATCTTG) — higher, 2.9
- ATAGGTGCATGGACCGGTTTTCCCGGTAATCCGTATTTGGC (site ATAGGTGCTGC) — higher, 3.17
- ATAGTATCATGGACCGGTTTTCCCGGTAATCCGTATTTGTA (site ACAGTATCTTG) — within 0.2 log units, 0.029
- ATAGTATCATGGACCGGTTTTCCCGGTAATCCGTATTTGTA (site ATAGTATCTTA) — higher, 3.14
- ATAGTCGCATGGACCGGTTTTCCCGGTAATCCGTATTTGCG (site ATAGTCGCTCG) — higher, 1.37
- ATAGTCGCATGGACCGGTTTTCCCGGTAATCCGTATTTGCG (site CTAGTCGCTCG) — higher, 0.303
- ATAGTCGCATGGACCGGTTTTCCCGGTAATCCGTATTTGCG (site GTAGTCGCTCG) — within 0.2 log units, 0.0129
- ATAGTCGCATGGACCGGTTTTCCCGGTAATCCGTATTTGCG (site TTAGTCGCTCG) — within 0.2 log units, 0.00819
- ATAGTCTCATGGACCGGTTTTCCCGGTAATCCGTATTTGAG (site ATAGTCTCTCT) — higher, 2
- ATAGTGGCATGGACCGGTTTTCCCGGTAATCCGTATTTGGC (site ATAGTGGCTGC) — higher, 2.85
- ATAGTTTCATGGACCGGTTTTCCCGGTAATCCGTATTTGCA (site ACAGTATCTTG) — higher, 1.49
- ATAGTTTCATGGACCGGTTTTCCCGGTAATCCGTATTTGCA (site ATAGTTTCTTG) — higher, 2.47
- ATATAGACATGGACCGGTTTTCCCGGTAATCCGTATTTGCT (site ATATAGACTAG) — higher, 2.72
- ATATCGCCATGGACCGGTTTTCCCGGTAATCCGTATTTGAT (site ATATCGCCTAT) — higher, 0.284
- ATATCTGCATGGACCGGTTTTCCCGGTAATCCGTATTTGTA (site ATATCTGCTTA) — higher, 2
- ATATTCACATGGACCGGTTTTCCCGGTAATCCGTATTTGTT (site ATATTCACTAA) — higher, 1.75
- ATCAAGACATGGACCGGTTTTCCCGGTAATCCGTATTTGCA (site AGGAAGACTTG) — higher, 0.783
- ATCAAGACATGGACCGGTTTTCCCGGTAATCCGTATTTGCA (site ATCAAGACTTG) — higher, 2.31
- ATCAAGGCATGGACCGGTTTTCCCGGTAATCCGTATTTGTC (site ATCAAGGCTGA) — higher, 1.53
- ATCAATACATGGACCGGTTTTCCCGGTAATCCGTATTTGCA (site ATCAATACTTG) — higher, 1.44
- ATCATTGCATGGACCGGTTTTCCCGGTAATCCGTATTTGGC (site ATCATTGCTGC) — higher, 2.13
- ATCCAAGCATGGACCGGTTTTCCCGGTAATCCGTATTTGAA (site ATCCAAGCTAT) — higher, 0.379
- ATCCAAGCATGGACCGGTTTTCCCGGTAATCCGTATTTGAA (site ATCCAAGCTCT) — higher, 0.445
- ATCCAAGCATGGACCGGTTTTCCCGGTAATCCGTATTTGAA (site ATCCAAGCTGT) — higher, 0.751
- ATCCAAGCATGGACCGGTTTTCCCGGTAATCCGTATTTGAA (site ATCCAAGCTTT) — higher, 1.29
- ATCCAAGCATGGACCGGTTTTCCCGGTAATCCGTATTTGGG (site ATCCAAGCTCA) — within 0.2 log units, 0.0113
- ATCCAAGCATGGACCGGTTTTCCCGGTAATCCGTATTTGGG (site ATCCAAGCTCC) — higher, 0.365
- ATCCAAGCATGGACCGGTTTTCCCGGTAATCCGTATTTGGG (site ATCCAAGCTCG) — within 0.2 log units, 0.0298
- ATCCAAGCATGGACCGGTTTTCCCGGTAATCCGTATTTGGG (site ATCCAAGCTCT) — within 0.2 log units, 0.00791
- ATCCAATCATGGACCGGTTTTCCCGGTAATCCGTATTTGAG (site ATCCAAACTCT) — within 0.2 log units, 0.00423
- ATCCAATCATGGACCGGTTTTCCCGGTAATCCGTATTTGAG (site ATCCAACCTCT) — within 0.2 log units, 0.0188
- ATCCAATCATGGACCGGTTTTCCCGGTAATCCGTATTTGAG (site ATCCAAGCTCT) — within 0.2 log units, 0.0117
- ATCCAATCATGGACCGGTTTTCCCGGTAATCCGTATTTGAG (site ATCCAATCTCT) — higher, 1.04
